The values that follow come from patent US20040138301A1, “Chemical uncouplers for the treatment of obesity” (priority 2002, published 2004).

Each structure is given as a SMILES string.

The subject of series [1] is HEP-G2 cells. In words: cells. The conditions noted are these: for EC50 / Emax / EC (Emax): Homo sapiens; for EC50: HepG2, 3 h, read-out: HEP-G2 EC50, HEP-G2 cells, glucose utilisation, 3 hours incubation; for Emax: HepG2, read-out: HEP-G2 Emax (% of FCCP), HEP-G2 cells, maximal stimulation relative to FCCP; for EC (Emax): HepG2, read-out: HEP-G2 Emax (μM), HEP-G2 cells, concentration at which Emax is achieved (CEmax); for HEP-G2 Tox: human, 3 h. As to the method:
Assay (I): Glucose utilisation in a human hepatocytes cell line (HEP-G2 cells)
The assay measures indirectly the activity of the respiratory chain in HEP-G2 cells by using D-(3-^3H(N))-glucose. The ^3H-proton will first be released during the metabolism of glucose where it will be incorporated into water. The water is thereafter separated from the D-(3-^3H(N))-glucose by evaporation. Finally, the radioactivity in the water is determined using a Topcounter.
HEP-G2 cells obtained from ATCC (Maryland, USA), are cultured in assay medium (MEM medium) with the following addition 1× non-essential amino acids (M7145, 2 mM glutamine, 100 units/ml penicillin and streptomycin, 0.0075% sodium bicarbonate, 1 mM sodium pyrovate and 0.5% BSA (Bovin Serum Albumin, Sigma Missouri, USA)) at 37° C. and 5% CO2. All media are obtained by Gibco (Life Technologies, Maryland, USA) where not otherwise mentioned.
At day zero the cells are harvested using trypsin-EDTA and washed in assay medium using centrifugation. […] The cells are then incubated at 37° C. and 5% CO2 overnight.
(§1) The next day the compounds to be tested are diluted in DMSO (Sigma, Missouri, USA) to 100 times final concentration. They are then diluted to a final concentration in assay medium containing 10 μCi/ml D-(3-^3H(N))-glucose (PerkinElmer Life Sciences Inc., Boston, USA). The medium is removed from the cells and 200 μl of the compound dilutions are added in duplicates. The cells are then incubated for another 3 hours at 37° C. and 5% CO2. Finally the cells are lysed by adding 50 μl 10% TCA (trichloroacetic acid). 300 μl of sterile water is then added to the 24-wells that surrounds the StripPlate wells. The plate is sealed with Top-seal-tape (Packard, PerkinElmer Life Sciences Inc., Boston, USA) and the plate is incubated in a heating cupboard at 50° C. to equilibrium the radioactive water formed in the respiratory chain into the water in the 24-well plate by evaporate. The plates incubate for 8 hours where the heating cupboard is turned off. The top seal is removed when the samples have reached room temperature. One ml scintillation liquid (Packard Microscient, PerkinElmer Life Sciences Inc., Boston, USA) is added to all the samples and the radioactivity is determined using a Topcounter (Packard, PerkinElmer Life Sciences Inc., Boston, USA). Non-specific activity is determined by evaporating 200 μl of the dilution medium containing the D-(3-^3H(N))-glucose into 300 μl sterile water, and total radioactivity is determined by counting 5 μl assay medium with 10 μCi/ml D-(3-^3H(N))-glucose.
The cpm (counts per minute) representing the non-specific radioactivity in the D-(3-^3H(N))-glucose is subtracted from all incubated values. Then mean basal value (samples without any compound added) is subtracted from the values of all stimulated samples (samples added different concentrations of the different test compounds). All these calculations are done using GraphPad Prism 3.0 (GraphPad software, Inc.). The maximal stimulation caused by the test compounds is calculated in percentage of maximal stimulation caused by either DNP or FCCP.
When calculating the concentration-response curve the maximal glucose utilisation stimulated by FCCP or DNP (subtracted non-specific and basal values) is converted to 100% and all the other values are expressed in percentage of this value. Using these percentage values and the compound concentration a concentration-response curve is calculated using sigmoidal dose-response (variable slope) equation (all the calculations are done by GraphPad Prism 3.0 (GraphPad software, Inc.));
Y=Bottom+(Top−Bottom)/(1+10^((LogEC50-X)*slope))
(§2) X is the logarithm of the molar concentration of the test compound.
Y is the degree of stimulation caused by the compound measured as a percentage of the maximal stimulation achieved by use of FCCP or DNP.
The results achieved with these concentrations are used to determine the slope in this area using the following equation: […]

Series [2] concerns FSK-4 cells. In words: Assay (IV): Glucose utilisation in FSK-4 cells. Type of series: cell-based. As to conditions: FSK-4 cells; for EC50: glucose utilisation, 24 hours incubation, read-out: FSK4 EC50; for Emax: maximal efficacy relative to FCCP, read-out: FSK4 Emax (% of FCCP). Here is the method: Assay (IV): Glucose Utilisation in FSK-4 Cells
The assay measures indirectly the activity of the respiratory chain in FSK-4 cells by using D-(6-^3H(N))-glucose. The ^3H-proton will first be released in the TCA cyclus and transported to the respiratory chain where it will be incorporated into water. The water is thereafter separated from the D-(6-^3H(N))-glucose by evaporation. Finally, the radioactivity in the water is determined using a Topcounter.
FSK-4 cells obtained from ATCC (Maryland, USA), are cultured in growth medium (McCoy's medium with the following addition 100 units/ml penicillin and streptomycin and 10% FCS (fetal calf serum)) at 37° C. and 5% CO2. All media are obtained by Gibco (Life Technologies, Maryland, USA) where not otherwise mentioned.
At day zero the cells are harvested using trypsin-EDTA and washed in assay medium (MEM medium with the following addition 1× non-essential amino acids (M7145, 2 mM glutamin, 100 units/ml pencillin and streptomycin, 0.0075% sodium bicarbonate, 1 mM sodium pyrovate and 2% horse serum) using centrifugation. The cells are plated into single StripPlates wells (Corning B.V.Life Sciences, The Netherlands) that are placed into 24-well plates (Corning B.V.Life Sciences, The Netherlands) with a concentration of 1,5×10^4 cells/100 μl assay medium/well. The cells are then incubated at 37° C. and 5% CO2 overnight.
as §1, with “are diluted to different concentrations in DMSO” for “are diluted in DMSO”, “10 μCi/ml D-(6-^3H(N))-glucose (PerkinElmer Life” for “10 μCi/ml D-(3-^3H(N))-glucose (PerkinElmer Life”, “for another 24 hours at” for “for another 3 hours at”, “10% TCA (tri-chloroacetatic acid). 300” for “10% TCA (trichloroacetic acid). 300”, “containing the D-(6-^3H(N))-glucose into 300” for “containing the D-(3-^3H(N))-glucose into 300”, “10 μCi/ml D-(6-^3H(N))-glucose.” for “10 μCi/ml D-(3-^3H(N))-glucose.”
All calculations are done using GraphPad Prism 3.0 (GraphPad software, Inc.) From concentration-response curves the half maximal concentration (EC50) and maximal efficacy (Emax) are calculated using equation 1.
Y=Bottom+(Top−Bottom)/(1+10^((LogEc50-X)*slope))
as §2
Y is the degree of stimulation caused by the compound measured as percentage of the basal stimulation.
The calculated EC50 value is then used to determine the concentrations used in a study where the Hill slope is calculated.
From the double logarithmic plot of the increase in glucose utilisation and the compound concentration the Hill slope is calculated accordingly to equation 2.
It is presumed, that the maximal increase in the glucose utilisation (as measured in the FSK-4 glucose utilisation assay) is limited by the capacity of the metabolism.

Take `Cc1c(Cl)cc(C(C)(C)C)c(O)c1C(=O)Nc1ccc([N+](=O)[O-])cc1Cl` [Example 5, 3-Tert-Butyl-5-Chloro-N-(2-Chloro-4-Nitrophenyl)-2-Hydroxy-6-Methyl-Benzamide]: in series [1], the EC50 (as a rule, the concentration giving half of the maximal effect) was determined as 60 nM; the Emax (commonly the size of the effect at its maximum, as opposed to the concentration needed) was 95%; the EC (Emax) was found to be 0.3 µM. In addition, in series [2], the EC50 was 100 nM and the maximal response (Emax) worked out at 100%.
Turning to `Cc1ccc(C(C)(C)C)c(O)c1C(=O)Nc1ccc([N+](=O)[O-])cc1Cl` [Example 10], in series [1], the EC50 was 370 nM, the maximum response (Emax) stood at 100% and the EC (Emax) amounted to 3 µM. For the same molecule, in series [2], the concentration giving a half-maximal response (EC50) is 300 nM and the Emax turned out to be 80%.
In the case of `CC(C)(C)c1cc(C[P+](c2ccccc2)(c2ccccc2)c2ccccc2)cc(C(C)(C)C)c1O` [Example 11, (3,5-Di-Tert-Butyl-4-Hydroxybenzyl)Triphenylphosphonium Bromide], in series [1], the EC50 came to 700 nM, the Emax worked out at 75%, the EC (Emax) is 3 µM and the “HEP-G2 Tox” value is “Tox 0.03 mM”. Besides, in series [2], the EC50 came out at 300 nM and the Emax was determined as 90%.
In the case of `CC(C)(C)c1cc(C[P+](C2CCCCC2)(C2CCCCC2)C2CCCCC2)cc(C(C)(C)C)c1O` [Example 12, (3,5-Di-Tert-Butyl-4-Hydroxybenzyl)Tricyclohexylphosphonium Bromide], in series [1], the EC50 stood at 1200 nM, the Emax was 70%, the EC (Emax) stood at 10 µM and the “HEP-G2 Tox” value was “Tox 0.03 mM”. Further, in series [2], the EC50 is 300 nM and the Emax worked out at 85%.
With `CCCC[P+](CCCC)(CCCC)Cc1cc(C(C)(C)C)c(O)c(C(C)(C)C)c1.[Br-]` [Example 13, (3,5-Di-Tert-Butyl-4-Hydroxybenzyl)Tributylphosphonium Bromide], in series [1], the concentration giving a half-maximal response (EC50) worked out at 2900 nM, the Emax was determined as 70%, the EC (Emax) was determined as 10 µM and the “HEP-G2 Tox” value is on record as “Tox 0.03 mM”. Moreover, in series [2], the EC50 came to 1000 nM and the Emax was 85%.
For `CCCCCCCC[P+](CCCCCCCC)(CCCCCCCC)Cc1cc(C(C)(C)C)c(O)c(C(C)(C)C)c1.[Br-]` [Example 14, (3,5-Di-Tert-Butyl-4-Hydroxybenzyl)Trioctylphosphonium Bromide], in series [1], the concentration for a half-maximal effect (EC50) stood at 1100 nM, the Emax was 100%, the EC (Emax) came to 10 µM and the “HEP-G2 Tox” value is “Tox 0.01 mM”. In series [2], the EC50 was determined as 200 nM and the Emax was found to be 100%.
As for `CCOC(=O)/C(C#N)=C/c1cc(C(C)(C)C)c(O)c(C(C)(C)C)c1` [Example 15, 2-Cyano-3-(3,5-Di-Tert-Butyl-4-Hydroxyphenyl)-Acrylic Acid Ethyl Ester], in series [1], the EC50 was found to be 700 nM, the Emax stood at 100% and the EC (Emax) amounted to 3 µM. Moreover, in series [2], the EC50 was 2000 nM and the Emax stood at 65%.
For `CCOC(=O)C(=Cc1cc(C(C)(C)C)c(O)c(C(C)(C)C)c1)C(=O)OCC` [Example 16, 2-(3,5-Di-Tert-Butyl-4-Hydroxy-Benzylidene)-Malonic Acid Diethyl Ester], in that order: 11000 nM, 100%, 100 µM, 30000 nM and 45%.
Consider `CC(C)(C)c1cc(C=C2C(=O)c3ccccc3C2=O)cc(C(C)(C)C)c1O` [Example 18, 2-(3,5-Di-Tert-Butyl-4-Hydroxy-Benzylidene)-Indan-1,3-Dione], for which, in series [1], the EC50 was 600 nM, the Emax turned out to be 80% and the EC (Emax) was found to be 3 µM. In series [2], the EC50 is 6000 nM and the Emax came out at 100%.
The corresponding values for `N#CC(C#N)=Cc1c(-c2ccc(Cl)cc2)[nH]c2ccccc12` [Example 19, 2-[[2-(4-Chlorophenyl)-1H-Indol-3-Yl]Methylene]Malononitrile] are 7000 nM, 100%, 100 µM, 1100 nM and 55%.
Turning to `Clc1ccc(-c2cc3ccccc3[nH]2)cc1` [Example 20, 2-(4-Chlorophenyl)-Indole], in series [1], the EC50 worked out at 50000 nM, the Emax amounted to 55% and the EC (Emax) is 300 µM. In series [2], the EC50 is 26000 nM and the Emax was determined as 90%.
Turning to `Cc1c(Cl)cc(C(C)(C)C)c(O)c1C(=O)Nc1ccc(Cl)c(C(F)(F)F)c1` [Example 42, 3-Tert-Butyl-5-Chloro-N-(4-Chloro-3-Trifluoromethyl-Phenyl)-2-Hydroxy-6-Methyl-Benzamide], in series [1], the EC50 was 3300 nM, the Emax was found to be 89% and the EC (Emax) is 10 µM. In addition, in series [2], the EC50 is 1100 nM and the Emax amounted to 75%.
